Reference: patent US9169254B2, “Spiroimidazolone derivative” (Chugai Seiyaku Kabushiki Kaisha, priority 2009, dated 2015)

Target: T1, human PTH1 receptor (Homo sapiens, UniProt Q03431)
T1 sequence (Q03431 27-593): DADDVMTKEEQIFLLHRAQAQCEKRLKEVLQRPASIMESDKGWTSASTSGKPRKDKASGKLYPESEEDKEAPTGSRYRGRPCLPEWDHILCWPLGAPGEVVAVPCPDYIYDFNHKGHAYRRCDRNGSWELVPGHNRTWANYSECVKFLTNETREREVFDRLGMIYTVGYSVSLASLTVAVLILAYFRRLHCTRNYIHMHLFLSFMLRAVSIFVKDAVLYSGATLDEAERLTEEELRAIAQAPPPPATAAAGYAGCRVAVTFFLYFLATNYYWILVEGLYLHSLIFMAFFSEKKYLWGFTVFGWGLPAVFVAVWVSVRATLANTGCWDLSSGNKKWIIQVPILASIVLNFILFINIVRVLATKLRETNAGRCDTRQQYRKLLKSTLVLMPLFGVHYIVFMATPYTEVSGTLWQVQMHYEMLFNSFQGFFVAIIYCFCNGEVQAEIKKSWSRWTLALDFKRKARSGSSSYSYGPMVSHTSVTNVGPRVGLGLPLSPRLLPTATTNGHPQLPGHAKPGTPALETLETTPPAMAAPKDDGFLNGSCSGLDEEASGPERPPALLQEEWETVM
Test: In vitro cAMP signal activity in HKRK-B7 cells (LLC-PK1 cells overexpressing the human PTH1 receptor)
Type: cell-based
Settings: HKRK-B7 cells; compound at 1×10^−3 M; cAMP produced as percentage of that produced by hPTH(1-34) at 100 nM

SMILES | cAMP production activity (%)
CC(=O)Nc1ccc(-c2ccc(S(=O)(=O)N3CCC4(CC3)N=C(C3CCCCC3)NC4=O)s2)c(C)c1 [Compound 332, N-{4-[5-(2-cyclohexyl-4-oxo-1,3,8-triaza-spiro[4.5]dec-1-ene-8-sulfonyl)-thiophen-2-yl]-3-methyl-phenyl}-acetamide] | 90
Cc1noc(C)c1-c1ccccc1CCS(=O)(=O)N1CCC2(CC1)N=C(C1CCCCC1)NC2=O [Compound 338, 2-Cyclohexyl-8-{2-[2-(3,5-dimethyl-isoxazol-4-yl)-phenyl]-ethanesulfonyl}-1,3,8-triaza-spiro[4.5]dec-1-en-4-one] | 60
COc1ccc(-c2ccccc2CCS(=O)(=O)N2CCC3(CC2)N=C(C2CCCCC2)NC3=O)cn1 [Compound 339, 2-cyclohexyl-8-{2-[2-(6-methoxy-pyridin-3-yl)-phenyl]-ethanesulfonyl}-1,3,8-triaza-spiro[4.5]dec-1-en-4-one] | 66
Cn1cc(-c2ccccc2CCS(=O)(=O)N2CCC3(CC2)N=C(C2CCCCC2)NC3=O)cn1 [Compound 340, 2-cyclohexyl-8-{2-[2-(1-methyl-1H-pyrazol-4-yl)-phenyl]-ethanesulfonyl}-1,3,8-triaza-spiro[4.5]dec-1-en-4-one] | 67
Cc1cc(OCCC(O)CO)ccc1-c1ccc(S(=O)(=O)N2CCC3(CC2)N=C(c2ccc(F)c(C(F)(F)F)c2)NC3=O)s1 (centres unmarked) [Compound 341, 8-{5-[4-(3,4-Dihydroxy-butoxy)-2-methyl-phenyl]-thiophene-2-sulfonyl}-2-(4-fluoro-3-trifluoromethyl-phenyl)-1,3,8-triaza-spiro[4.5]dec-1-en-4-one] | 62
O=C1NC(C2CCCCC2)=NC12CCN(S(=O)(=O)/C=C/c1nccs1)CC2 [Compound 343, 2-Cyclohexyl-8-((E)-2-thiazol-2-yl-ethenesulfonyl)-1,3,8-triaza-spiro[4.5]dec-1-en-4-one] | 13
O=C1NC(C2CCCCC2)=NC12CCN(S(=O)(=O)/C=C/C1CCCC1)CC2 [Compound 344, 2-cyclohexyl-8-((E)-2-cyclopentyl-ethenesulfonyl)-1,3,8-triaza-spiro[4.5]dec-1-en-4-one] | 35
O=C1NC(C2CCCCC2)=NC12CCN(S(=O)(=O)CCc1nccs1)CC2 [Compound 345, 2-Cyclohexyl-8-(2-thiazol-2-yl-ethanesulfonyl)-1,3,8-triaza-spiro[4.5]dec-1-en-4-one] | 21
COc1ccc(CCCS(=O)(=O)N2CCC3(CC2)N=C(C2CCCCC2)NC3=O)cc1 [Compound 346, 2-Cyclohexyl-8-[3-(4-methoxy-phenyl)-propane-1-sulfonyl]-1,3,8-triaza-spiro[4.5]dec-1-en-4-one] | 28
Cc1cc(C(=O)N2CCN(S(C)(=O)=O)CC2)ccc1CCS(=O)(=O)N1CCC2(CC1)N=C(c1cccc(C(F)(F)F)c1)NC2=O [Compound 352, 8-{2-[4-(4-Methanesulfonyl-piperazine-1-carbonyl)-2-methyl-phenyl]-ethanesulfonyl}-2-(3-trifluoromethyl-phenyl)-1,3,8-triaza-spiro[4.5]dec-1-en-4-one] | 19
CC(=O)N[C@@H]1CCN(C(=O)c2ccc(CCS(=O)(=O)N3CCC4(CC3)N=C(c3cccc(C(F)(F)F)c3)NC4=O)c(C)c2)C1 [Compound 353, N—[(R)-1-(3-methyl-4-{2-[4-oxo-2-(3-trifluoromethyl-phenyl)-1,3,8-triaza-spiro[4.5]dec-1-ene-8-sulfonyl]-ethyl}-benzoyl)-pyrrolidin-3-yl]-acetamide] | 120

Results, then the molecule that gave them:

cAMP production activity (%) | SMILES
33 | CN(C)C(=O)c1ccc(-c2ccc(S(=O)(=O)N3CCC4(CC3)N=C(c3cccc(C(F)(F)F)c3)NC4=O)s2)cc1 [Compound 329, N,N-Dimethyl-4-{5-[4-oxo-2-(3-trifluoromethyl-phenyl)-1,3,8-triaza-spiro[4.5]dec-1-ene-8-sulfonyl]-thiophen-2-yl}-benzamide]
23 | CN(C)C(=O)c1cccc(-c2ccc(S(=O)(=O)N3CCC4(CC3)N=C(c3cccc(C(F)(F)F)c3)NC4=O)s2)c1 [Compound 330, N,N-dimethyl-3-{5-[4-oxo-2-(3-trifluoromethyl-phenyl)-1,3,8-triaza-spiro[4.5]dec-1-ene-8-sulfonyl]-thiophen-2-yl}-benzamide]
55 | Cc1cc(C(=O)N(C)C)ccc1-c1ccc(S(=O)(=O)N2CCC3(CC2)N=C(c2cccc(C(F)(F)F)c2)NC3=O)s1 [Compound 331, 3,N,N-trimethyl-4-{5-[4-oxo-2-(3-trifluoromethyl-phenyl)-1,3,8-triaza-spiro[4.5]dec-1-ene-8-sulfonyl]-thiophen-2-yl}-benzamide]
87 | Cc1cc(C(=O)N(C)C)ccc1-c1ccc(S(=O)(=O)N2CCC3(CC2)N=C(c2ccc(F)c(C(F)(F)F)c2)NC3=O)s1 [Compound 333, 4-{5-[2-(4-fluoro-3-trifluoromethyl-phenyl)-4-oxo-1,3,8-triaza-spiro[4.5]dec-1-ene-8-sulfonyl]-thiophen-2-yl}-3,N,N-trimethyl-benzamide]
34 | Cc1ccc(C(=O)N(C)C)cc1-c1ccc(S(=O)(=O)N2CCC3(CC2)N=C(c2ccc(F)c(C(F)(F)F)c2)NC3=O)s1 [Compound 334, 3-{5-[2-(4-fluoro-3-trifluoromethyl-phenyl)-4-oxo-1,3,8-triaza-spiro[4.5]dec-1-ene-8-sulfonyl]-thiophen-2-yl}-4,N,N-trimethyl-benzamide]
28 | Cc1cc(C(=O)N(C)C)ccc1-c1cccc(S(=O)(=O)N2CCC3(CC2)N=C(c2cccc(OC(F)(F)F)c2)NC3=O)c1 [Compound 335, 2-methyl-3′-[4-oxo-2-(3-trifluoromethoxy-phenyl)-1,3,8-triaza-spiro[4.5]dec-1-ene-8-sulfonyl]-biphenyl-4-carboxylic acid dimethylamide]
28 | Cc1cc(C(=O)N(C)C)ccc1-c1ccc(S(=O)(=O)N2CCC3(CC2)N=C(c2cccc(OC(F)(F)F)c2)NC3=O)cc1 [Compound 336, 2-methyl-4′-[4-oxo-2-(3-trifluoromethoxy-phenyl)-1,3,8-triaza-spiro[4.5]dec-1-ene-8-sulfonyl]-biphenyl-4-carboxylic acid dimethylamide]
17 | Cc1cc(C(=O)N(C)C)ccc1-c1cccc(S(=O)(=O)N2CCC3(CC2)N=C(c2cccc(OC(F)(F)F)c2)NC3=O)n1 [Compound 337, 3,N,N-trimethyl-4-{6-[4-oxo-2-(3-trifluoromethoxy-phenyl)-1,3,8-triaza-spiro[4.5]dec-1-ene-8-sulfonyl]-pyridin-2-yl}-benzamide]
93 | CC(=O)N(CCO)c1ccc(-c2ccc(S(=O)(=O)N3CCC4(CC3)N=C(c3ccc(F)c(C(F)(F)F)c3)NC4=O)s2)c(C)c1 [Compound 342, N-(4-{5-[2-(4-Fluoro-3-trifluoromethyl-phenyl)-4-oxo-1,3,8-triaza-spiro[4.5]dec-1-ene-8-sulfonyl]-thiophen-2-yl}-3-methyl-phenyl)-N-(2-hydroxy-ethyl)-acetamide]
23 | O=C(NCc1ccccc1)c1ccccc1S(=O)(=O)N1CCC2(CC1)N=C(C1CCCCC1)NC2=O [Compound 347, N-Benzyl-2-(2-cyclohexyl-4-oxo-1,3,8-triaza-spiro[4.5]dec-1-ene-8-sulfonyl)-benzamide]
5.6 | O=C(c1cccc(C2=NC3(CCN(S(=O)(=O)c4cccc(Cl)c4)CC3)C(=O)N2)c1)N1CCOCC1 [Compound 348, 8-(3-Chloro-benzenesulfonyl)-2-[3-(morpholine-4-carbonyl)-phenyl]-1,3,8-triaza-spiro[4.5]dec-1-en-4-one]
11 | CN(C(=O)c1cccc(C2=NC3(CCN(S(=O)(=O)c4cccc(Cl)c4)CC3)C(=O)N2)c1)c1ccccc1 [Compound 349, 3-[8-(3-chloro-benzenesulfonyl)-4-oxo-1,3,8-triaza-spiro[4.5]dec-1-en-2-yl]-N-methyl-N-phenyl-benzamide]
5.5 | O=C(NCc1ccccc1)c1cccc(C2=NC3(CCN(S(=O)(=O)c4cccc(Cl)c4)CC3)C(=O)N2)c1 [Compound 350, N-benzyl-3-[8-(3-chloro-benzenesulfonyl)-4-oxo-1,3,8-triaza-spiro[4.5]dec-1-en-2-yl]-benzamide]
7.4 | CN(C)C(=O)c1cccc(C2=NC3(CCN(S(=O)(=O)c4cccc(Cl)c4)CC3)C(=O)N2)c1 [Compound 351, 3-[8-(3-chloro-benzenesulfonyl)-4-oxo-1,3,8-triaza-spiro[4.5]dec-1-en-2-yl]-N,N-dimethyl-benzamide]
27 | Cc1cc(C(=O)N2CCC[C@H]2C(F)(F)F)ccc1CCS(=O)(=O)N1CCC2(CC1)N=C(c1cccc(C(F)(F)F)c1)NC2=O [Compound 354, 8-{2-[2-methyl-4-((S)-2-trifluoromethyl-pyrrolidine-1-carbonyl)-phenyl]-ethanesulfonyl}-2-(3-trifluoromethyl-phenyl)-1,3,8-triaza-spiro[4.5]dec-1-en-4-one]
